Assay results as given in patent publication US20240010684A1, “MASP INHIBITORY COMPOUNDS AND USES THEREOF” (BAYER AKTIENGESELLSCHAFT, priority 2020, published 2024).
pIC50: −log10 of the molar value. Where a SMILES comes first, the peptide text is derived from it. Bridges are numbered along the chain shown (N, C = ends). [ ]: non-standard residue; d: D form. Oic = O=C(O)[C@@H]1C[C@@H]2CCCC[C@@H]2N1; tBuAla = CC(C)(C)C[C@H](N)C(=O)O; PEG4 = NCCOCCOCCOCCOCCC(=O)O; Pen = CC(C)(S)[C@H](N)C(=O)O; Dap = NC[C@H](N)C(=O)O; PEG2 = NCCOCCOCCC(=O)O; Ahx = NCCCCCC(=O)O

Assays:
human MASP1 = human MASP1 (Homo sapiens (Human), UniProt P48740); test: Biochemical human MASP1 assay (FRET substrate); conditions: Average IC50; recombinant human MASP1; read-out: human MASP1 IC50
Sequence of human MASP1 (P48740 other isoform, or with tags, fused parts or gaps): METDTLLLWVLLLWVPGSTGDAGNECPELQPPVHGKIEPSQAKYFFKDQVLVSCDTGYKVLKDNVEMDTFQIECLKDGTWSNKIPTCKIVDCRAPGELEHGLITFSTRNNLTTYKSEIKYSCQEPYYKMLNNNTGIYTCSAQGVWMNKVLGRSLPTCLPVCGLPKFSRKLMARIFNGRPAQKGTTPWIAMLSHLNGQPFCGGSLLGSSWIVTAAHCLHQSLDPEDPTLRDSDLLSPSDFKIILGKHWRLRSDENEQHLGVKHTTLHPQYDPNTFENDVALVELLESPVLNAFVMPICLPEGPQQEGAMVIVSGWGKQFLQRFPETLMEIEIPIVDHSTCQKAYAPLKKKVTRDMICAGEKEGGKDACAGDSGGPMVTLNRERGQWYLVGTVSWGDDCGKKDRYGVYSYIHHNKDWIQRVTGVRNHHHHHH
Description: A truncated cDNA sequence of human MASP1 encoding the fragment corresponding to the amino acids 297-699 with a C-terminal His Tag and N-terminal Ig-kappa secretion signal (SEQ ID No: 2) was subcloned into the mammalian expression vector pcDNA3.1 (Invitrogen).
The MASP1 or MASP2 expression vectors were transfected into the HEK293 (ATCC No. CRL-1573) cell line using Lipofectamine LTX® Reagent (Thermo-Fischer), as described by the manufacturer. The mature form of the recombinant human MASP1 and MASP2 proteases were secreted into the culture medium. The MASP1 and MASP2 proteins were purified from the conditioned media by affinity chromatography on Ni-NTA Superflow resin (Qiagen) as described by the manufacturer.
2.2 Biochemical Human MASP1 Assay
Recombinant human MASP1 enzyme produced in the HEK 293 cells was diluted in the reaction buffer (50 mM HEPES pH 8,0; 100 mM NaCl; 0,01% CHAPS; 0.5 mM Gluthathione) to the concentration of 20 nM and 25 μl was transferred into each single well of 384-well white microtiter plate (Greiner Bio One 781075). 1 μl of the inhibitor compound solution (dissolved in DMSO, at the corresponding concentration) or pure DMSO as a control was added to the same wells. The enzymatic reaction was initiated by addition of 25 μl of 20 μM solution of the FRET substrate ABZ-[…]-Lys (Dnp)-NH2; (ABZ-2-aminobenzoyl; DNP 2,4-dinitrophenyl; custom synthesis by Jerini Peptide Technologies, Berlin) in the reaction buffer. The microtiter plate was incubated for 60-120 min at the temperature of 32 C. The increase of fluorescence intensity was measured in appropriate fluorescence plate reader (e.g. TECAN Ultra) using excitation wavelength of 320 nm and emission wavelength of 420 nm. IC50 values were calculated from percentage of inhibition of human MASP1 activity as a function of test compound concentration.

human MASP2 = human MASP2 (Homo sapiens (Human), UniProt O00187); test: Biochemical human MASP2 assay (FRET substrate); conditions: Average IC50; recombinant human MASP2; read-out: human MASP2 IC50
Sequence of human MASP2 (O00187 other isoform, or with tags, fused parts or gaps): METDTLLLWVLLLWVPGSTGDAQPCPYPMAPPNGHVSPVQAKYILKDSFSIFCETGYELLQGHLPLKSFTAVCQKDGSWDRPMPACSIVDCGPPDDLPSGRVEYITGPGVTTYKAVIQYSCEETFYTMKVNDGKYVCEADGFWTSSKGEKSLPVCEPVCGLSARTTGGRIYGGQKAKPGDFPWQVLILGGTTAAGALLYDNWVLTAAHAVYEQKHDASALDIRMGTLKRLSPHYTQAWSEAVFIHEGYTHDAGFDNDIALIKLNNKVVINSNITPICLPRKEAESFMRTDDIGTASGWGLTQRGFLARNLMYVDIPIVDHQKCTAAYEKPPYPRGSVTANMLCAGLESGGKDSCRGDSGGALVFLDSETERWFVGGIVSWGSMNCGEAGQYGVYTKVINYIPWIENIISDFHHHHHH
Description: The MASP1 or MASP2 expression vectors were transfected into the HEK293 (ATCC No. CRL-1573) cell line using Lipofectamine LTX® Reagent (Thermo-Fischer), as described by the manufacturer. The mature form of the recombinant human MASP1 and M[…] were secreted into the culture medium. The MASP1 and M[…] were purified from the conditioned media by affinity chromatography on Ni-NTA Superflow resin (Qiagen) as described by the manufacturer. 2.3 Biochemical Human MASP2 Assay […] The enzymatic reaction was initiated by addition of 25 μl of 60 μM solution of the FRET substrate DABCYL-[…]; […] The microtiter plate was incubated for 60-120 min at the temperature of 32 C. The increase of fluorescence intensity was measured in appropriate fluorescence plate reader (e.g. TECAN Ultra) using excitation wavelength of 340 nm and emission wavelength of 490 nm. IC50 values were calculated from percentage of inhibition of human MASP2 activity as a function of test compound concentration.

pIC50 (human MASP1)	pIC50 (human MASP2)	SMILES
6.77	6.62	CC[C@H](C)[C@@H]1NC(=O)CNC(=O)CCOCCOCCOCCOCCNC(=O)[C@H](CC(=O)O)NC(=O)[C@@H]2CCCN2C(=O)[C@H]([C@@H](C)CC)NC(=O)[C@@H]2CSSC[C@H](NC1=O)C(=O)N[C@@H](CO)C(=O)N[C@@H](CCCNC(=N)N)C(=O)N[C@@H](CO)C(=O)N[C@@H](CC(C)C)C(=O)N1CCC[C@H]1C(=O)N1CCC[C@H]1C(=O)N[C@@H]([C@@H](C)CC)C(=O)N2 [Example 14] (cyclo(CIPD[PEG4]GICSRSLPPI); disulfide 1-8)
6.92	6.52	CC[C@H](C)[C@@H]1NC(=O)CNC(=O)CNC(=O)[C@H](CC(=O)O)NC(=O)[C@@H]2CCCN2C(=O)[C@H]([C@@H](C)CC)NC(=O)[C@@H]2CSSC[C@H](NC1=O)C(=O)N[C@@H](CO)C(=O)N[C@@H](CCCNC(=N)N)C(=O)N[C@@H](CO)C(=O)N[C@@H](CC(C)C)C(=O)N1CCC[C@H]1C(=O)N1CCC[C@H]1C(=O)N[C@@H]([C@@H](C)CC)C(=O)N2 [Example 15, [(6S,9S,12S,15S,18R,21S,30S,32aS,38S,41R,44S,46aS,51aS)-21,38,44-tri[(2S)-butan-2-yl]-12-(3-carbamimidamidopropyl)-9,15-bis(hydroxymethyl)-6-(2-methylpropyl)-5,8,11,14,17,20,23,26,29,32,37,40,43,46,51-pentadecaoxopentacontahydro-1H-18,41-(methanodithiomethano)tripyrrolo[1,2-a:1′,2′-d:1″,2″-p][1,4,7,10,13,16, 19,22,25,28,31,34,37,40,43]pentadecaazacyclopentatetracontin-30-yl]acetic acid] (cyclo(CIPDGGICSRSLPPI); disulfide 1-8)
6.82	6.43	CC[C@H](C)[C@@H]1NC(=O)CNC(=O)CCCCCNC(=O)[C@@H](CC(=O)O)NC(=O)[C@@H]2CCCN2C(=O)[C@H]([C@@H](C)CC)NC(=O)[C@@H]2CSSC[C@H](NC1=O)C(=O)N[C@@H](CO)C(=O)N[C@@H](CCCNC(=N)N)C(=O)N[C@@H](CO)C(=O)N[C@@H](CC(C)C)C(=O)N1CCC[C@H]1C(=O)N1CCC[C@H]1C(=O)N[C@@H]([C@@H](C)CC)C(=O)N2 [Example 16, [(6S,9S,12S,15S,18R,21S,34R,36aS,42S,45R,48S,50aS,55aS)-21,42,48-tri[(2S)-butan-2-yl]-12-(3-carbamimidamidopropyl)-9,15-bis(hydroxymethyl)-6-(2-methylpropyl)-5,8,11,14,17,20,23,26,33,36,41,44,47,50,55-pentadecaoxotetrapentacontahydro-1H-18,45-(methanodithiomethano)tripyrrolo[2,1-f:2′,1′-r:2″,1″-u][1,4,7,10,13,16,19,22,25,28,31,34,37,40,43]pentadecaazacyclononatetracontin-34-yl]acetic acid] (cyclo([Ahx]GICSRSLPPICIP[dD]); disulfide 4-12)
7.59	7.06	CC[C@H](C)[C@@H]1NC(=O)CNC(=O)CNC(=O)[C@H](C)NC(=O)[C@@H](CC(=O)O)NC(=O)[C@@H]2CCCN2C(=O)[C@H]([C@@H](C)CC)NC(=O)[C@@H]2CSSC[C@H](NC1=O)C(=O)N[C@@H](CO)C(=O)N[C@@H](CCCNC(=N)N)C(=O)N[C@@H](CO)C(=O)N[C@@H](CC(C)C)C(=O)N1CCC[C@H]1C(=O)N1CCC[C@H]1C(=O)N[C@@H]([C@@H](C)CC)C(=O)N2 [Example 17] (cyclo(AGGICSRSLPPICIP[dD]); disulfide 5-13)
7.30	7.82	CC[C@H](C)[C@@H]1NC(=O)CNC(=O)CNC(=O)[C@H](C)NC(=O)[C@H](CC(=O)O)NC(=O)[C@@H]2CCCN2C(=O)[C@H]([C@@H](C)CC)NC(=O)[C@@H]2CSSC[C@H](NC1=O)C(=O)N[C@@H](CO)C(=O)N[C@@H](CCCNC(=N)N)C(=O)N[C@@H](CO)C(=O)N[C@@H](CC(C)C)C(=O)N1CCC[C@H]1C(=O)N1CCC[C@H]1C(=O)N[C@@H]([C@@H](C)CC)C(=O)N2 [Example 18] (cyclo(AGGICSRSLPPICIPD); disulfide 5-13)
7.31	6.68	CC[C@H](C)[C@@H]1NC(=O)CNC(=O)CNC(=O)[C@@H](C)NC(=O)[C@H](CC(=O)O)NC(=O)[C@@H]2CCCN2C(=O)[C@H]([C@@H](C)CC)NC(=O)[C@@H]2CSSC[C@H](NC1=O)C(=O)N[C@@H](CO)C(=O)N[C@@H](CCCNC(=N)N)C(=O)N[C@@H](CO)C(=O)N[C@@H](CC(C)C)C(=O)N1CCC[C@H]1C(=O)N1CCC[C@H]1C(=O)N[C@@H]([C@@H](C)CC)C(=O)N2 [Example 19] (cyclo(CIPD[dA]GGICSRSLPPI); disulfide 1-9)
7.26	6.96	CC[C@H](C)[C@@H]1NC(=O)CNC(=O)CNC(=O)[C@@H](N)CNC(=O)[C@H](CC(=O)O)NC(=O)[C@@H]2CCCN2C(=O)[C@H]([C@@H](C)CC)NC(=O)[C@@H]2CSSC[C@H](NC1=O)C(=O)N[C@@H](CO)C(=O)N[C@@H](CCCNC(=N)N)C(=O)N[C@@H](CO)C(=O)N[C@@H](CC(C)C)C(=O)N1CCC[C@H]1C(=O)N1CCC[C@H]1C(=O)N[C@@H]([C@@H](C)CC)C(=O)N2 [Example 20] (H-[Dap]GGICSRSLPPICIPD; lactam 1-C; disulfide 5-13)
6.77	6.92	CC[C@H](C)[C@@H]1NC(=O)CNC(=O)[C@H](CO)NC(=O)CNC(=O)[C@H](CO)NC(=O)[C@H](CC(=O)O)NC(=O)[C@@H]2CCCN2C(=O)[C@H]([C@@H](C)CC)NC(=O)[C@@H]2CSSC[C@H](NC1=O)C(=O)N[C@@H](CO)C(=O)N[C@@H](CCCNC(=N)N)C(=O)N[C@@H](CO)C(=O)N[C@@H](CC(C)C)C(=O)N1CCC[C@H]1C(=O)N1CCC[C@H]1C(=O)N[C@@H]([C@@H](C)CC)C(=O)N2 [Example 21] (cyclo(CIPDSGSGICSRSLPPI); disulfide 1-10)
6.72	7.04	CC[C@H](C)[C@@H]1NC(=O)CNC(=O)[C@@H](N)CCCCNC(=O)[C@H](CC(=O)O)NC(=O)[C@@H]2CCCN2C(=O)[C@H]([C@@H](C)CC)NC(=O)[C@@H]2CSSC[C@H](NC1=O)C(=O)N[C@@H](CO)C(=O)N[C@@H](CCCNC(=N)N)C(=O)N[C@@H](CO)C(=O)N[C@@H](CC(C)C)C(=O)N1CCC[C@H]1C(=O)N1CCC[C@H]1C(=O)N[C@@H]([C@@H](C)CC)C(=O)N2 [Example 22] (H-KGICSRSLPPICIPD; lactam 1-C; disulfide 4-12)
6.96	6.68	CC[C@H](C)[C@@H]1NC(=O)CNC(=O)CCOCCOCCNC(=O)[C@H](CC(=O)O)NC(=O)[C@@H]2CCCN2C(=O)[C@H]([C@@H](C)CC)NC(=O)[C@@H]2CSSC[C@H](NC1=O)C(=O)N[C@@H](CO)C(=O)N[C@@H](CCCNC(=N)N)C(=O)N[C@@H](CO)C(=O)N[C@@H](CC(C)C)C(=O)N1CCC[C@H]1C(=O)N1CCC[C@H]1C(=O)N[C@@H]([C@@H](C)CC)C(=O)N2 [Example 24] (cyclo(CIPD[PEG2]GICSRSLPPI); disulfide 1-8)
7.22	6.21	CC[C@H](C)[C@@H]1NC(=O)[C@H](C)NC(=O)CCCCCNC(=O)[C@@H]2CCCN2C(=O)[C@H]([C@@H](C)CC)NC(=O)[C@@H]2CSSC[C@H](NC1=O)C(=O)N[C@@H](CO)C(=O)N[C@@H](CCCNC(=N)N)C(=O)N[C@@H](CO)C(=O)N[C@@H](CC(C)C)C(=O)N1CCC[C@H]1C(=O)N1[C@@H](C[C@@H]3CCCC[C@@H]31)C(=O)N[C@@H]([C@@H](C)CC)C(=O)N2 [Example 25] (cyclo(AICSRSLP[Oic]ICIP[Ahx]); disulfide 3-11)
7.92	6.77	CC[C@H](C)[C@@H]1NC(=O)[C@H](C)NC(=O)CNC(=O)[C@H](C)NC(=O)[C@H](CC(=O)O)NC(=O)[C@@H]2CCCN2C(=O)[C@H]([C@@H](C)CC)NC(=O)[C@H]2NC(=O)[C@H]([C@@H](C)CC)NC(=O)[C@@H]3CCCN3C(=O)[C@@H]3CCCN3C(=O)[C@H](CC(C)(C)C)NC(=O)[C@H](CO)NC(=O)[C@H](CCCNC(=N)N)NC(=O)[C@H](CO)NC(=O)[C@H](CSSC2(C)C)NC1=O [Example 26] (cyclo(AGAICSRS[tBuAla]PPI[Pen]IPD); disulfide 5-13)
